Where two headings read alike, the source gives them in different places.
Tests used:
M1 muscarinic receptor = biological target: T1, M1 muscarinic receptor (Homo sapiens, UniProt P11229); assay: Functional mobilization of intracellular calcium (FLIPR) in M1-CHO cells; format: cell-based
T1 construct: expressed in transfected cells; host or cells: CHO (M1-CHO)
T1 sequence (P11229 1-460): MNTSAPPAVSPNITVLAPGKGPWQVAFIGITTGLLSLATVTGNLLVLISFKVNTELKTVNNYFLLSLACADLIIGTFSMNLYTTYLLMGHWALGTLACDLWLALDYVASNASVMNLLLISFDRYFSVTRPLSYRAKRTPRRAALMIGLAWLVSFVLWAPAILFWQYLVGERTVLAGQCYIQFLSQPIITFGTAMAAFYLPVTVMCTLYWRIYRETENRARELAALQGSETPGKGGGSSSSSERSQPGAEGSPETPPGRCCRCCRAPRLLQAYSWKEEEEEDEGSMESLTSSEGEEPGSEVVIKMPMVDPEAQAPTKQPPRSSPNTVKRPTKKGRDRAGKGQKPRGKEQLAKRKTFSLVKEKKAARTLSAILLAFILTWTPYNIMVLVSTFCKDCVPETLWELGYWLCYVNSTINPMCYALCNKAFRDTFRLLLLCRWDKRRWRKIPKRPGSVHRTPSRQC
Outline: (§1)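 CHO cells stably expressing human M1 or M4 receptor were loaded with Fluo-3 AM (or Calcium 3 dye) in Hepes-buffered saline, pH 7.4, with 1 mM probenecid, 0.5% final DMSO. Agonist mode: compound added directly; antagonist mode: 15 min preincubation before carbachol at EC80. FLIPR fluorescence recorded 60 sec.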

M4 muscarinic receptor = biological target: T2, M4 muscarinic receptor (Homo sapiens, UniProt P08173); assay: Functional mobilization of intracellular calcium (FLIPR) in M4-CHO cells; format: cell-based
T2 construct: expressed in transfected cells; host or cells: CHO (M4-CHO)
T2 sequence (P08173 1-479): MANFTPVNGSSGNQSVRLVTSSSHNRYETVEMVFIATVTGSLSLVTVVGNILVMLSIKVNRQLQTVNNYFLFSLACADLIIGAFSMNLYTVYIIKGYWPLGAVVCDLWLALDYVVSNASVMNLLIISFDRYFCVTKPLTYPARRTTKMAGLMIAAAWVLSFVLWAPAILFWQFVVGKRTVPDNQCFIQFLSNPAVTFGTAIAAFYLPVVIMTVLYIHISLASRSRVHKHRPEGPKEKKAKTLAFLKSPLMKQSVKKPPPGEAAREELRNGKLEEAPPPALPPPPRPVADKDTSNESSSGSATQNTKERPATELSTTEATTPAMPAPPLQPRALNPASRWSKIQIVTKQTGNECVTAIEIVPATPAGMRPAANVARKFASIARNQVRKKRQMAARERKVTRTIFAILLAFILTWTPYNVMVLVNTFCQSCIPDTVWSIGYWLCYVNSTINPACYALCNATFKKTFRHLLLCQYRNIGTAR
Outline: as §1

[1] = M1 receptor, calcium mobilization
[2] = M1 receptor, calcium mobilization, read-out: M1 Efficacy
[3] = M4 receptor, calcium mobilization
[4] = M4 receptor, calcium mobilization, read-out: M4 Efficacy
[5] = Table 4, 100% efficacy is the maximum response obtained with the Carbachol control
[6] = Table 4, M1 receptor, calcium mobilization (FLIPR)
[7] = Table 4, M4 receptor, calcium mobilization (FLIPR)
[8] = Table 4, modulating M1 receptor
[9] = Table 4, modulating M4 receptor

Compound	M1 Activity (M1 muscarinic receptor; [1])	Emax (M1 muscarinic receptor; [2])	M4 Activity (M4 muscarinic receptor; [3])	Emax (M4 muscarinic receptor; [4])	Emax (M1 muscarinic receptor; [5])	M1 Activity (M1 muscarinic receptor; [6])	Emax (M4 muscarinic receptor; [5])	M4 Activity (M4 muscarinic receptor; [7])	M1 Activity (M1 muscarinic receptor; [8])	M4 Activity (M4 muscarinic receptor; [9])
CCC1CCC(N2CCC3(CC2)C[C@H](NC(C)=O)c2ccccc23)CC1 (some centres unmarked) [compound 367]	x (activity was measured to be greater than 1.0 μM)	< 65%	x (activity was measured to be greater than 1.0 μM)	< 65%						
CCOC(=O)N1CCC(N2CCC3(CC2)CNc2ccc(F)cc23)CC1 [compound 952]					25 to 100%	xxx (activity was measured to be less than 2.0 μM)	25 to 100%	xxx (activity was measured to be less than 2.0 μM)		
O=C(O)C1CC2(CCN(C3CCCCCC3)CC2)c2ccccc21 (centres unmarked) [compound 488]					25 to 100%		25 to 100%		x (activity was measured to be greater than 5.0 μM)	x (activity was measured to be greater than 5.0 μM)
CC#CCOC(=O)N1CC[C@@H](CN2CCC3(CC2)CN(C(C)=O)c2ccccc23)C1 [compound 886]					25 to 100%	xxx (activity was measured to be less than 2.0 μM)	25 to 100%	xxx (activity was measured to be less than 2.0 μM)		
CCOC(=O)N1CCC(N2CCC3(CC2)CN(C(C)=O)c2ccc(-c4ccc(OC)cc4)cc23)CC1 [compound 193]	x (activity was measured to be greater than 1.0 μM)	< 65%	x (activity was measured to be greater than 1.0 μM)	< 65%						
CC(C)OC(=O)N1CCCC(N2CCC3(CC2)CN(C(=O)N(C)C)c2ccc(F)cc23)CC1 (centres unmarked) [compound 704]					25 to 100%		25 to 100%		xxx (activity was measured to be less than 2.0 μM)	xxx (activity was measured to be less than 2.0 μM)
CN(C)C(=O)N1CC2(CCN(C3CCN(C(=O)c4ccon4)CC3)CC2)c2cc(F)ccc21 [compound 619]					25 to 100%		25 to 100%		xx (activity was measured to be between 2.0 μM and 5.0 μM)	xxx (activity was measured to be less than 2.0 μM)
CCOC(=O)N1C2CCC1CC(N1CCC3(CC1)CN(C(C)=O)c1ccccc13)C2 (centres unmarked) [compound 205]	x (activity was measured to be greater than 1.0 μM)	< 65%	x (activity was measured to be greater than 1.0 μM)	< 65%						
CCCCOC(=O)N1C2CCC1CC(N1CCC3(CC1)CN(C(C)=O)c1ccccc13)C2 (centres unmarked) [compound 604]					< 25%		25 to 100%		x (activity was measured to be greater than 5.0 μM)	xxx (activity was measured to be less than 2.0 μM)
O=C1CC2(CCN([C@@H]3C[C@H]4CC[C@@H]3C4)CC2)c2ccc(Cl)cc21 [compound 901]					25 to 100%	xx (activity was measured to be between 2.0 μM and 5.0 μM)	25 to 100%	xx (activity was measured to be between 2.0 μM and 5.0 μM)		
COc1ccc(N2CCC(N3CCC4(CC3)CN(C(=O)N(C)C)c3ccc(F)cc34)CC2)cc1 [compound 990]					25 to 100%	xx (activity was measured to be between 2.0 μM and 5.0 μM)	25 to 100%	x (activity was measured to be greater than 5.0 μM)		
CC#CCOC(=O)N1CC[C@H](CN2CCC3(CC2)CN(C(C)=O)c2cccc(C)c23)C1 [compound 445]					25 to 100%		25 to 100%		xxx (activity was measured to be less than 2.0 μM)	xxx (activity was measured to be less than 2.0 μM)
CCC#CCOC(=O)N1CCC(N2CCC3(CC2)CN(C(C)=O)c2ccccc23)CC1 [compound 656]					25 to 100%		25 to 100%		xxx (activity was measured to be less than 2.0 μM)	xxx (activity was measured to be less than 2.0 μM)
CCOC(=O)N1CCC(N2CCC3(CC2)CN(C(C)=O)c2c(F)cc(F)cc23)CC1 [compound 579]					25 to 100%		25 to 100%		xxx (activity was measured to be less than 2.0 μM)	xxx (activity was measured to be less than 2.0 μM)
